# Data reported in PubChem BioAssay (NCI).
#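 Each compound was tested at five concentrations against cells in 96-well plates for 48 hours. Abbreviation: GI50, concentration required for 50% inhibition of growth. TGI is the concentration that stops growth completely.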
# Key:
# Assay in all cases: DTP human tumour cell line panel, 48 h
# ACHN renal = system: ACHN renal
# CCRF-CEM leukemia = system: CCRF-CEM leukemia
# HT29 colon = system: HT29 colon
# MDA-MB-435 = system: MDA-MB-435
# PC-3 prostate = system: PC-3 prostate
# SF-539 CNS = system: SF-539 CNS
# SK-MEL-2 melanoma = system: SK-MEL-2 melanoma
# SNB-75 CNS = system: SNB-75 CNS
# UACC-257 melanoma = system: UACC-257 melanoma
# RXF 393 renal = system: RXF 393 renal
Structure (SMILES),TGI (ACHN renal),TGI (CCRF-CEM leukemia),TGI (HT29 colon),TGI (MDA-MB-435),TGI (PC-3 prostate),TGI (SF-539 CNS),TGI (SK-MEL-2 melanoma),TGI (SNB-75 CNS),TGI (UACC-257 melanoma),TGI (RXF 393 renal),GI50 (ACHN renal),GI50 (HT29 colon),GI50 (MDA-MB-435),GI50 (PC-3 prostate),GI50 (RXF 393 renal),GI50 (SF-539 CNS),GI50 (SK-MEL-2 melanoma),GI50 (SNB-75 CNS),GI50 (UACC-257 melanoma),GI50 (CCRF-CEM leukemia)
CCN(CC(O)COc1ccc2c(c1)[n+]([O-])nc(N)[n+]2[O-])C(C)=O (stereo not given),> 100 µM,> 100 µM,> 100 µM,> 100 µM,> 100 µM,> 100 µM,> 100 µM,> 100 µM,> 100 µM,,,,,,,,,,,
O=Cc1cc2sc(C=O)cc2s1,,> 100 µM,> 100 µM,,,> 100 µM,,> 100 µM,> 100 µM,> 100 µM,,,,,,,,,,
CC1O[C@@H]2CCCCC(=O)[C@]2(C)[C@H]1C (stereo not given in full),> 100 µM,> 100 µM,> 100 µM,,,,> 100 µM,> 100 µM,> 100 µM,> 100 µM,,,,,,,,,,
COc1ccc(CC2OC3(CCCCC3)CC3CCCCN32)cc1 (stereo not given),> 100 µM,> 100 µM,> 100 µM,> 100 µM,> 100 µM,,> 100 µM,> 100 µM,> 100 µM,> 100 µM,,,,,,,,,,
Cc1cc(NCCCCCCCCNc2cc(C)nc3cc(N(C)C)ccc23)c2ccc(N(C)C)cc2n1,32.7 µM,49.1 µM,,,,,,,23.1 µM,28.7 µM,,,,,,,,,,
Cc1ccccc1C1SCc2nc3ccccc3n21 (stereo not given),> 100 µM,> 100 µM,,,,> 100 µM,> 100 µM,> 100 µM,> 100 µM,> 100 µM,,,,,,,,,,
O=C(C#Cc1ccccc1)N1CCCCC1,> 100 µM,> 100 µM,> 100 µM,> 100 µM,> 100 µM,> 100 µM,> 100 µM,> 100 µM,> 100 µM,,,,,,,,,,,
CC1NCCC(CC(=O)O)C1CC(=O)O (stereo not given),> 100 µM,> 100 µM,> 100 µM,> 100 µM,> 100 µM,,> 100 µM,> 100 µM,> 100 µM,> 100 µM,,,,,,,,,,
COc1cccc(/C=C/C(=O)c2cc3c(N)c(C(=O)Nc4ccccc4)sc3nc2C)c1,1.86 µM,,3.42 µM,2.86 µM,5.06 µM,1.84 µM,8.63 µM,> 50 µM,8.97 µM,1.71 µM,0.971 µM,1.21 µM,0.989 µM,1.47 µM,0.837 µM,0.957 µM,1.75 µM,0.889 µM,1.9 µM,
O=C(Nc1c(Cl)cccc1Cl)Oc1cccc2cccnc12,> 100 µM,23.2 µM,> 100 µM,> 100 µM,> 100 µM,19 µM,,53.6 µM,9.72 µM,> 100 µM,3.87 µM,19.4 µM,7.52 µM,6.26 µM,16.7 µM,4.57 µM,,13.5 µM,2.74 µM,2.29 µM
C/C(COc1ccccc1)=N\NC(N)=S,> 100 µM,> 100 µM,> 100 µM,,,> 100 µM,> 100 µM,> 100 µM,> 100 µM,> 100 µM,,,,,,,,,,
CN1C(=O)CC(CC(=O)C2CCCCC2=O)CC1=O (stereo not given),> 100 µM,> 100 µM,> 100 µM,,,> 100 µM,,> 100 µM,> 100 µM,> 100 µM,,,,,,,,,,
NC1=NN(c2ccccc2)C(=O)C1/C(=N\NC(=O)c1cc2ccccc2cc1O)C(=O)Nc1ccc(Cl)c(Cl)c1 (stereo not given),> 100 µM,57.7 µM,> 100 µM,,,> 100 µM,> 100 µM,> 100 µM,84 µM,> 100 µM,,,,,,,,,,
OCC1OC(N2CCN(C3OC(CO)C(O)C(O)C3O)CC2)C(O)C(O)C1O (stereo not given),> 100 µM,,> 100 µM,> 100 µM,> 100 µM,> 100 µM,> 100 µM,> 100 µM,> 100 µM,> 100 µM,,,,,,,,,,
COC(=O)C1(N2CCOCC2)CCC([C@@H](c2ccccc2)C(C)[N+](=O)[O-])C1 (stereo not given in full),> 100 µM,20.3 µM,> 100 µM,> 100 µM,> 100 µM,> 100 µM,> 100 µM,> 100 µM,86.9 µM,,,,,,,,,,,
Clc1cc2ns[s+]c2cc1Cl,> 100 µM,> 100 µM,> 100 µM,,,> 100 µM,> 100 µM,> 64.2 µM,> 100 µM,> 100 µM,,,,,,,,,,
CC1=NN(c2ccccc2)C(=O)C1N=Nc1ccc(Br)cc1C (stereo not given),> 100 µM,> 100 µM,> 100 µM,,,> 100 µM,> 100 µM,48.3 µM,> 100 µM,> 100 µM,,,,,,,,,,
Cc1c2cc[n+](C)cc2c(C)c2c1[nH]c1ccc(OC(C)(C)C)cc12,> 100 µM,> 100 µM,> 100 µM,,,> 100 µM,> 100 µM,> 100 µM,> 100 µM,> 100 µM,,,,,,,,,,
O=C(O)[C@@H](Cc1ccccc1)NS(=O)(=O)c1ccc(-c2ccccc2)cc1,> 100 µM,> 100 µM,> 100 µM,> 100 µM,> 100 µM,> 100 µM,> 100 µM,> 100 µM,> 100 µM,,> 100 µM,> 100 µM,> 100 µM,> 100 µM,,> 100 µM,> 100 µM,> 100 µM,> 100 µM,> 100 µM
O=C(NNC(=O)/C(=C/c1cccc([N+](=O)[O-])c1)NC(=O)c1ccccc1)Nc1ccc(Cl)cc1,31.8 µM,31.2 µM,27.8 µM,,,35.1 µM,25.5 µM,36 µM,34.4 µM,25.6 µM,,,,,,,,,,
C=C1[C@H](O)C[C@@H](C(C)C(O)CC=C(C)C)[C@@H](O)[C@@H]2C(C)=CC[C@@H]12 (stereo not given in full),> 100 µM,> 100 µM,> 100 µM,> 100 µM,> 100 µM,> 100 µM,> 100 µM,> 100 µM,> 100 µM,,> 100 µM,> 100 µM,> 100 µM,> 100 µM,,> 100 µM,> 100 µM,> 100 µM,> 100 µM,55.6 µM
